Assay: cn = amount concentration of the nth substance listed, in mol/dm3
Conditions: 101 kPa, Liquid, Dip Cell

O=C([O-])c1ccccc1.[Na+] [sodium benzoate] + O
electrical conductivity [S/m]
Conditions	298 K	303 K	308 K	313 K
c1 = 1.98e-05	1.95e-05	1.613e-05	1.97e-05	2.22e-05
c1 = 3.92e-05	3.33e-05	3.53e-05	3.66e-05	4.21e-05
c1 = 5.82e-05	4.76e-05	5.11e-05	5.48e-05	5.98e-05
c1 = 7.69e-05	5.86e-05	6.55e-05	6.76e-05	7.77e-05
c1 = 9.52e-05	7.22e-05	7.97e-05	8.72e-05	9.3e-05
c1 = 0.0001221	8.72e-05	9.91e-05	0.000107	0.000116
c1 = 0.0001567	0.00011	0.000121	0.000133	0.000143
c1 = 0.00019	0.0001285	0.00013	0.000157	0.000167
c1 = 0.0002222	0.000145	0.000161	0.000178	0.00019
c1 = 0.0002533	0.000161	0.000175	0.000197	0.0002038
c1 = 0.0002906	0.00018	0.000199	0.000206	0.000221
c1 = 0.0003264	0.000198	0.000203	0.000224	0.000243
c1 = 0.0003607	0.000199	0.000217	0.000243	0.000262
c1 = 0.0004	0.000216	0.000235	0.000261	0.000285
c1 = 0.0004375	0.000231	0.000254	0.000284	0.000307
c1 = 0.0004791	0.000245	0.000271	0.000304	0.000332
c1 = 0.000524	0.000266	0.000291	0.000326	0.000354
c1 = 0.0005663	0.000293	0.000307	0.000338	0.000375
c1 = 0.0006063	0.000297	0.000324	0.000362	0.00039
c1 = 0.0006532	0.000314	0.000341	0.000381	0.000412
c1 = 0.0007055	0.000326	0.00036	0.000393	0.000439
c1 = 0.0007616	0.000349	0.000379	0.000428	0.000462
c1 = 0.0008131	0.000366	0.000398	0.000446	0.000486
c1 = 0.0008669	0.000381	0.000414	0.000463	0.000507
c1 = 0.0009218	0.000398	0.000432	0.000483	0.000526
c1 = 0.000977	0.000412	0.000443	0.000493	0.000547
c1 = 0.001027	0.000431	0.000456	0.000514	0.000563

O=C([O-])c1ccccc1O.[Na+] [sodium salicylate] + O
electrical conductivity [S/m]
Conditions	298 K	303 K	308 K	313 K
c1 = 3.09e-05	2.48e-05	2.4e-05	2.71e-05	3.69e-05
c1 = 6.1e-05	4.76e-05	4.74e-05	5.24e-05	6.8e-05
c1 = 9.04e-05	6.66e-05	6.95e-05	7.56e-05	9.61e-05
c1 = 0.000119	8.34e-05	8.73e-05	9.64e-05	0.000122
c1 = 0.000147	0.000102	0.000107	0.000118	0.000149
c1 = 0.0001744	0.000118	0.000125	0.000136	0.000173
c1 = 0.0002064	0.000135	0.000144	0.000157	0.000197
c1 = 0.0002376	0.000152	0.000163	0.000176	0.000208
c1 = 0.0002778	0.000173	0.000185	0.0002	0.000237
c1 = 0.0003166	0.000192	0.000203	0.000209	0.000264
c1 = 0.0003541	0.000204	0.00021	0.000228	0.000286
c1 = 0.0003903	0.00021	0.000227	0.000248	0.000309
c1 = 0.0004339	0.000226	0.000248	0.00027	0.000327
c1 = 0.0004757	0.000244	0.000266	0.00029	0.000363
c1 = 0.0005237	0.000261	0.000288	0.000315	0.000393
c1 = 0.0005695	0.000281	0.000307	0.000338	0.000419
c1 = 0.0006132	0.000297	0.000325	0.000357	0.000441
c1 = 0.000655	0.000311	0.000342	0.000373	0.000463
c1 = 0.0007014	0.000322	0.00036	0.000394	0.000486
c1 = 0.0007517	0.000344	0.000378	0.000412	0.000511
c1 = 0.0007993	0.00036	0.000395	0.000434	0.000533
c1 = 0.0008444	0.000373	0.000409	0.000457	0.000547
c1 = 0.0008974	0.000389	0.000422	0.000482	0.000572
c1 = 0.0009472	0.000401	0.000448	0.000502	0.000592
c1 = 0.001003	0.000417	0.000459	0.000527	0.000614
c1 = 0.001063	0.000433	0.000483	0.000551	0.000635
c1 = 0.001123	0.00045	0.000492	0.000561	0.000656
c1 = 0.001181	0.000464	0.000515	0.000594	0.000674
c1 = 0.001241	0.000474	0.000535	0.000613	0.000692
c1 = 0.001301	0.000494	0.000552	0.000631	0.000712

Source: the NIST ThermoML archive (doi:10.1021/je100256w)
